# From patent US12318375B2, “Method of treatment with tradipitant” (Vanda Pharmaceuticals Inc., priority 2015, dated 2025)
# Key:
# [1] = system: chronic pruritus in patients with atopic dermatitis; test: Phase II proof of concept clinical study VP-VLY-686-2101: efficacy on pruritus measures; format: in vivo, human; settings: for VAS Average change (primary): tradipitant 100 mg qd oral in the evening
# Description: A phase II proof of concept clinical study (Study ID VP-VLY-686-2101, “Proof of Concept of VLY-686 in Subjects With Treatment-Resistant Pruritus Associated With Atopic Dermatitis”) was conducted, investigating the safety and efficacy of tradipitant as a monotherapy in the treatment of chronic pruritus in patients with atopic dermatitis.
# In the study, patients with a Visual Analog Scale (VAS) score of greater than 70 mm during one of the two days preceding inclusion into the study were randomized to receive orally either 100 mg of tradipitant (N=34) or placebo (N=35) once a day in the evening. In the tradipitant arm of the study, tradipitant was orally administered to patients in capsules with standard excipients in an amount of 100 mg in the evening. Clinical assessments were made after 3 or 4 weeks of daily treatment, or at both 3 weeks and 4 weeks, each assessment being done in the morning of the day after last treatment or in the afternoon of the day after last treatment. The tradipitant was administered in an immediate release form comprising tradipitant and pharmaceutically acceptable excipients in a capsule. The tradipitant particle size was approximately: D10: <5 um, D50: <10 um, and D90: <25 um, wherein D10 means that 10% of the particles are of the indicated mean particle size, D50 means that 50% of the particles are of the indicated mean particle size, and D90 means that 90% of the particles are of the indicated mean particle size.
# Baseline VAS scores were 76.1 and 77.2 for the tradipitant and placebo arms respectively. Efficacy was evaluated through a number of clinical research instruments. In addition, at the time of efficacy evaluation blood samples were collected for PK analysis in order to determine the plasma levels of tradipitant.
# [2] = Example 2: plasma concentration of tradipitant in healthy subjects (85 mg qd, then Q12H); format: in vivo, human
# Description: In one study, healthy subject participants were orally administered 85 mg tradipitant on study day 3, and then 85 mg tradipitant Q12H on study days 4-16. Plasma concentration levels of tradipitant were measured on each of day 3, day 7, and day 11.
# This study illustrated that administration of 85 mg tradipitant qd (on day 3) produced an average plasma concentration over hours 0-12 that was about 50% of the plasma concentration observed in the PM group in Example 1. On days 7 and 11, the average plasma concentration over hours 0-12 following administration of 85 mg bid (specifically, Q12H) tradipitant was about 150% of the plasma concentration observed in the PM group in Example 1. The average plasma concentration over hours 0-12 at each point was determined by dividing the AUC for hours 0-12 (in (hr.)×(ng/mL)) by 12 hours.
smiles,measurement,setting,value
"O=C(c1ccccc1Cl)c1cccnc1-c1nnn(Cc2cc(C(F)(F)F)cc(C(F)(F)F)c2)c1-c1ccncc1 [Tradipitant, {2-[1-(3,5-Bistrifluoromethylbenzyl)-5-pyridin-4-yl-1H-[1,2,3]triazol-4-yl]-pyridin-3-yl}-(2-chlorophenyl)-methanone]","endpoints that correspond to the underlying disease (SKINDEX, SCORAD objective, EASI and DLQI) compared with placebo","[1]; 100 mg qd, 4-week study",did not show any significant difference from placebo
same,VAS Average change (primary),"[1]; AM group (morning assessment), N = 18, after 3 or 4 weeks",−54
same,"CGIC, Diff tradipitant vs placebo","[1]; AM group, 100 mg qd",−1.15
same,"DLQI change, Diff tradipitant vs placebo","[1]; AM group, 100 mg qd",0.35
same,"PBI, Diff tradipitant vs placebo","[1]; AM group, 100 mg qd",0.74
same,"SCORAD change, Diff tradipitant vs placebo","[1]; AM group, 100 mg qd",−5.23
same,"VAS Worst change, Diff tradipitant vs placebo","[1]; AM group, 100 mg qd",−21.9
same,"VRS change, Diff tradipitant vs placebo","[1]; AM group, 100 mg qd",−0.79
same,PBI,"[1]; AM group, 100 mg qd, N = 18",1.47
same,"VAS Average change, Diff tradipitant vs placebo","[1]; AM group, 100 mg qd, tradipitant N = 18 vs placebo N = 17",−23.7
same,VAS Average change (primary),"[1]; PM group (afternoon assessment), N = 13, after 3 or 4 weeks",−28.8
same,"CGIC, Diff tradipitant vs placebo","[1]; PM group, 100 mg qd",0.19
same,"DLQI change, Diff tradipitant vs placebo","[1]; PM group, 100 mg qd",−1.89
same,"PBI, Diff tradipitant vs placebo","[1]; PM group, 100 mg qd",−0.39
same,"SCORAD change, Diff tradipitant vs placebo","[1]; PM group, 100 mg qd",0.88
same,"VAS Worst change, Diff tradipitant vs placebo","[1]; PM group, 100 mg qd",8.99
same,"VRS change, Diff tradipitant vs placebo","[1]; PM group, 100 mg qd",−0.13
same,efficacy analysis of pruritus measures compared with placebo,"[1]; PM group, 100 mg qd",no significant differences between tradipitant and placebo
same,PBI,"[1]; PM group, 100 mg qd, N = 13",1.01
same,"VAS Average change, Diff tradipitant vs placebo","[1]; PM group, 100 mg qd, tradipitant N = 13 vs placebo N = 11",5.82
same,VAS change from baseline compared with placebo (pre-specified primary endpoint),"[1]; all patients, 100 mg qd",no statistical difference from placebo
same,average plasma concentration over hours 0-12 (AUC 0-12 divided by 12 hours) relative to PM group in Example 1,"[2]; day 3, 85 mg qd oral",about 50%
same,average plasma concentration over hours 0-12 (AUC 0-12 divided by 12 hours) relative to PM group in Example 1,"[2]; days 7 and 11, 85 mg bid (Q12H) oral",about 150%
